Series [1] is described as follows: Cytotoxicity against pig SPEV cells by microscopic analysis. The class given is cell-based, Sus scrofa.
The test system of series [2] is Hepatitis C virus. Briefly: Antiviral activity against Hepatitis C virus infected in pig SPEV cells assessed as protection against virus-induced cytopathic effect. It is filed as functional, organism-based, Hepacivirus hominis. On the technique in general: Cytopathic effects are the visible damage that an infection or toxin causes in cultured cells.
Series [3] has as its system Influenza A virus. The series can be described thus: Antiviral activity against Influenza A virus H5N1 (A/duck/Novosibirsk/56/2005) infected in pig SPEV cells assessed as protection against virus-induced cytopathic effect. The class given is functional, organism-based, Influenza A virus (A/duck/Novosibirsk/56/2005(H5N1)). Particulars: for Activity: Influenza A virus (A/duck/Novosibirsk/56/2005(H5N1)).

Series [4] relates to Vero C1008. Briefly: Cytotoxicity against African green monkey Vero E6 cells assessed as alterations in cell morphology at 1000 ug/ml by microscopic analysis. It is filed as cell-based. As to conditions: chlorocebus sabaeus.
Series [5] can be described thus: Cytotoxicity against pig SPEV cells at 150 ug/ml by microscopic analysis. The class given is cell-based, Sus scrofa.
In series [6] the test system is Human alphaherpesvirus 1. The series can be described thus: Antiviral activity against Human herpesvirus 1 L2 infected in African green monkey Vero E6 cells assessed as protection against virus-induced cytopathic effect. The class given is functional, organism-based. As to conditions: Human alphaherpesvirus 1, L2, Vero C1008.
The nature of series [7]: Cytotoxicity against African green monkey Vero E6 cells assessed as alterations in cell morphology by microscopic analysis. The class given is cell-based, Vero C1008. As to conditions: chlorocebus sabaeus.

≈ marks a conversion by molar mass, not a printed value. Calls of active or inactive are those of the source. The rule behind the calls is not given here.

A word on the CC50: it is the concentration giving 50% cytotoxicity. For orientation: IC50 means the concentration needed to halve the response being measured.

Take `NC(=O)c1ncn([C@@H]2O[C@H](CO)[C@@H](O)[C@H]2O)n1` [RIBAVIRIN]: in series [1], half-maximal cytotoxicity (CC50) was put at 75 µg/mL (≈ 307 µM). The IC50 in series [2] and in series [3] was 12.5 µg/mL (≈ 51.2 µM) each time.
As for `Cc1nc(-c2ncn([C@H]3C[C@H](O)[C@@H](CO)O3)n2)no1`, the Activity entry in series [4] and in series [5] was “Non-Toxic” in each case. Moreover, the outcome in series [3] was inactive.
In the case of `OC[C@H]1O[C@@H](n2cnc(-c3ncon3)n2)[C@H](O)[C@@H]1O`, the Activity entry in series [4] and in series [5] was “Non-Toxic” each time. In addition, the IC50 in series [6] came out at 250 µg/mL (≈ 929 µM).
As to `OC[C@H]1O[C@@H](n2cnc(-c3noc(-c4ccccc4)n3)n2)[C@H](O)[C@@H]1O`, the Activity result in series [4] and in series [5] was “Non-Toxic” throughout. For the same molecule, the IC50 in series [2] came out at 8.8 µg/mL (≈ 25.5 µM). For the same molecule, in series [7], the CC50 was 380 µg/mL (≈ 1100 µM).
In the case of `Cc1nc(-c2ncn([C@@H]3O[C@H](CO)[C@@H](O)[C@H]3O)n2)no1`, the Activity result in series [4] and in series [5] was “Non-Toxic” each time. Moreover, the IC50 in series [3] stood at 50 µg/mL (≈ 177 µM).
Take `CC(C)c1nc(-c2ncn([C@@H]3O[C@H](CO)[C@@H](O)[C@H]3O)n2)no1`: the Activity result in series [4] and in series [5] was “Non-Toxic” throughout. The outcome in series [3] was inactive.

The values above are taken from ChEMBL document CHEMBL4184172, “Isosteric ribavirin analogues: Synthesis and antiviral activities” (Bioorg Med Chem Lett, 2018).
